# Literature values in patent publication US20210244720A1, “Therapeutic Tyrosine Kinase Inhibitors for Relapsing Multiple Sclerosis (RMS)” (Genzyme Corporation, priority 2020, published 2021).
# Test system: RMS patients
# Details: from Week 12; cited from earlier work
compound,measurement,value
C=CC(=O)N1CCC(CNc2ncnc(N)c2-c2ccc(Oc3ccccc3)cc2)CC1 [evobrutinib],reduction of new Gd-enhancing T1 lesions,meaningful reduction
